Test results: patent publication US20240109843A1, “BENZALDEHYDE COMPOUNDS WITH DIRECT POLYMER DESTABILIZING EFFECTS TO TREAT SICKLE CELL DISEASE” (VIRGINIA COMMONWEALTH UNIVERSITY, priority 2018, published 2024)
Values joined by “and” are separate entries in the source; they are usually repeats but may differ in a detail not shown here. Equal entries are not always repeated.

What was measured:
[1] = Single-dose oral pharmacokinetics in rats; format: in vivo, Sprague Dawley rats; settings: Sprague Dawley, rat; single oral dose 100 mg/kg, male rats, whole blood
Description: Single doses of each compound were administered as oral suspensions by gavage in 0.5% carboxy methylcellulose at 100 mg/kg. Whole blood levels were collected for at least 72 hours after dose administration. Bioanalyses were performed with liquid chromatography-tandem mass spectrometry […].
Single-dose pharmacokinetics (PK) in male Sprague Dawley (SD) rats (n=4) were assessed for each compound, and the maximum or peak whole blood concentration and area under the curve are shown in Table 5.

[2] = 14-day repeat-dose oral pharmacokinetics in rats; format: in vivo; settings: SD, rat, whole blood, repeat oral doses 100 mg/kg for 14 days
Description: (§1) Repeat doses of each compound were administered once daily as oral suspensions by gavage in 0.5% carboxy methylcellulose for 14 days at 100 mg/kg. Whole blood was collected at 7 time-points for up to 24 hours during the final dosing interval on Day 14. Clinical observations, body weights, and food consumption were recorded throughout the 14 day study. Clinical chemistry and hematologic parameters were assessed, and histopathology was performed on organs after 14 days of exposure to study drug.
(§2) Repeat oral doses of each compound were administered by oral gavage for 14 days to male and female SD rats (n=3). […] Steady state exposures for the final dosing interval on Day 14 were similar to total compound exposure from single-dose PK.

[3] = 14-day repeat-dose safety (clinical observations, histopathology) in rats; format: in vivo, SD rats; settings: for safety in non-clinical toxicology: above anticipated therapeutic drug levels; for clinical or histopathologic changes after 14 days of exposure: oral 100 mg/kg once daily for 14 days, rats
Description: as §1, §2

Hb [4] = molecular target: T1, Hb (Homo sapiens, UniProt P69905); assay: Drug partitioning studies, fixed and unfixed Hb adducts in non-sickling AA blood; format: cell-based; parameters: Hemoglobin modification, studies using non-sickling AA blood; from tissue; host or cells: non-sickling (AA) human blood, red blood cells; settings: 2 mM; for Fixed Adducts (%) / Unfixed Adduct (%): 6 biological replicates; for Partitioning Ratio (%): fixed relative to unfixed adducts
Description: RBC partitioning studies were conducted both for SS RBCs following sickling studies above, or as separate independent studies with non-sickle blood. Briefly, aliquots of blood samples, which had been incubated with test molecules, were lysed either in deionized water (un-fixed), or in water containing 50 mM sodium borohydride (fixed). Samples were subjected to cation exchange HPLC analyses, as described above. Modified […] (Hb adducts) was determined as a proportion of total Hb in each sample, and partitioning ratio was determined as the relative fraction of Hb modification of fixed samples compared to corresponding non-fixed samples. The partitioning ratio is the relative fraction of Hb that was modified intracellularly by molecules that permeated the RBC membrane, as compared to unfixed adducts which reflect Hb binding without RBC membrane permeation.
Target sequence in this assay (P69905 2-142 limits assumed): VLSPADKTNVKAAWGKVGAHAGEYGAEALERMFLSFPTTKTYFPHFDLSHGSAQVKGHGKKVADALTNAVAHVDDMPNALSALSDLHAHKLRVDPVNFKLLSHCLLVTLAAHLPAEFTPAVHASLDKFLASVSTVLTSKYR
Target sequence in this assay (P68871 2-147 partner limits assumed): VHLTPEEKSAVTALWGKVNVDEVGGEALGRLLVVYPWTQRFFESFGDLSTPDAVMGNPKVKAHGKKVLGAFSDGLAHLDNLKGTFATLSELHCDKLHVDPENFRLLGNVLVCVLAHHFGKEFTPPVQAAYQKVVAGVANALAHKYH

Hb [5] = molecular target: T1, Hb; assay: Dose-dependent P50 shift in non-sickling human blood; format: cell-based; parameters: Hemoglobin modification, studies using non-sickling AA blood; from tissue; host or cells: non-sickling (AA) human blood, red blood cells; settings: compared to Voxelotor at equivalent drug-Hb occupancy levels
Description: Non-sickling human blood was incubated with test compounds at 0.25-2 mM concentrations at 37° C. for 1 hour in 96-well round bottom plates. At conclusion, RBCs were washed once with PBS, followed by lysis with deionized water. Approximately 100 μl aliquots of individual lysates were added to 3 mL of 0.1M potassium phosphate buffer, pH 7.0 in a cuvette and subjected to hemoximetry analysis using a Hemox™ Analyzer (TCS Scientific Corp.) as previously described. Change in p50 values (Δp50) was calculated by subtracting the p50 values of treated samples from the value of the control sample and expressing the difference as a percentage of control p50 values.
Target sequence in this assay (P69905 2-142 limits assumed): as the sequence (P69905 2-142 limits assumed) above
Target sequence in this assay (P68871 2-147 partner limits assumed): as the sequence (P68871 2-147 partner limits assumed) above

Hb [6] = molecular target: T1, Hb; assay: Hb modification (drug-adduct formation) in SS blood suspensions by cation-exchange HPLC; format: binding; parameters: Blood suspensions from subjects with homozygous SCD; from tissue; host or cells: blood suspensions (20% hematocrit) from donors with homozygous SCD; lysates of the treated red cells; settings: 2 mM, 4 biological replicates
Description: All compounds (Comp 1-13) and comparator molecules (VZHE-039, PP-14, INN-310, and Voxelotor) were evaluated following established procedures. Blood samples from individual donors with homozygous SCD (obtained with informed consent) were diluted using Hemox buffer solution with the addition of glucose (10 mM) and BSA (0.2%) to adjust hematocrit of the blood suspensions to 20%, which standardizes the procedure to normalize the ratio of RBCs to drug, for assay consistency and reproducibility. Briefly, blood suspensions were incubated under room air in the presence of various concentrations of test compounds (0-2 mM) at 37° C. for 1 hour in 96-well round bottom plates. Subsequently, the suspensions were incubated with a hypoxic gas mixture (2.5% Oxygen gas/balance Nitrogen gas) at 37° C. for up to 2 hours prior to fixation with 2% glutaraldehyde solution without exposure to air. The fixated blood aliquots were evaluated by microscopic morphological analysis (image analysis on Image J software) to identify the proportion of sickled and non-sickled RBCs, and sickle inhibition calculated based on the % change from negative control (DMSO).
The residual samples were then washed in phosphate-buffered saline, and hemolyzed in hypotonic lysis buffer, with or without sodium borohydride (50 mM). Aliquots obtained from the lysates with or without sodium borohydride (to reduce Schiff base adducts) were also assessed for level of Hb modification (drug-adduct formation) by cation-exchange HPLC (Hitachi D-7000 Series, Hitachi Instruments, Inc., San Jose, CA) with a weak cation-exchange column (Poly CAT A: 50 mm×4.6 mm, Poly LC, Inc., Columbia, MD). Hemoglobin isotype peaks are eluted with a linear gradient of phase B from 0% to 80% at A410 nm (Mobile Phase A: 40 mM Bis-Tris, 2 mM KCN, pH 6.9; Phase B: 40 mM Bis-Tris, 2 mM KCN, 0.2 M sodium chloride, pH 6.55). Clarified lysate from normal human adult […] (Hb A), as well as commercial standards containing approximately equal amounts of Hb F, A, S and C (Helena Laboratories, Beaumont, TX), were utilized as reference isotypes. Reduced samples were used to assess “fixed adduct” formation (dependent on RBC membrane permeability), whereas non-reduced samples assessed drug-adduct formation independent of drug permeability.
Target sequence in this assay (P69905 2-142): as the sequence (P69905 2-142 limits assumed) above
Target sequence in this assay (P68871 with tags, fused parts or gaps E7V partner): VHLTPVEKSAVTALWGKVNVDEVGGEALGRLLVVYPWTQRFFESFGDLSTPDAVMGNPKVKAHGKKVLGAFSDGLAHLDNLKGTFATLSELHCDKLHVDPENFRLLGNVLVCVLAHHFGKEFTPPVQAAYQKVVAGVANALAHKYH

Hb [7] = molecular target: T1, Hb; assay: Affinity (KD) for Hb; format: binding
Target sequence in this assay (P69905 2-142 limits assumed): as the sequence (P69905 2-142 limits assumed) above
Target sequence in this assay (P68871 2-147 partner limits assumed): as the sequence (P68871 2-147 partner limits assumed) above

[8] = system: RBCs from donors with homozygous SCD; assay: Oxygen-independent sickle inhibition in SS blood suspensions under anoxia (100% nitrogen); format: cell-based, human; settings: anoxia
Description: To establish oxygen-independent sickle inhibition, the incubation chamber was subsequently opened and exposed to room air for 15 minutes to ensure complete re-oxygenation and reversal of the sickled cells to normal round cells. Reversal was confirmed by microscopy. The incubation chamber was then closed, and the assay was repeated with incubation in 100% nitrogen gas for 1 hour (for screening), or up to 2.5 h (for time-course studies), with collection and fixation of blood aliquots at defined intervals. Aliquot samples were again subjected to microscopic morphological analysis of bright field images to identify the proportion of sickled and non-sickled cells, and sickle inhibition calculated.

[9] = patients with SCD, most patients; cited from earlier work
[10] = female rats, read-out: AUC0-∞ (female)
[11] = female rats, read-out: Cmax (female)
[12] = male rats, read-out: AUC0-∞ (male)
[13] = male rats, read-out: Cmax (male)

Row | Compound | AUC(0-inf) [1] | Cmax [1] | half-life [1] | AUC(0-inf) [2, 10] | Cmax [2, 11] | AUC(0-inf) [2, 12] | Cmax [2, 13] | safety in non-clinical toxicology [3] | clinical or histopathologic changes after 14 days of exposure [3] | Fixed Adducts (%) (Hb [4]) | Unfixed Adduct (%) (Hb [4]) | Partitioning Ratio (%) (Hb [4]) | change in p50 of Hb in human blood (in words) (Hb [5]) | Hb Modification (%) (Hb [6]) | Kd (Hb [7]) | polymer destabilizing effect / sickle inhibition in anoxia (in words) [8] | increase in Hb concentrations [9]
1 | O=Cc1c(O)cccc1OCc1ncccc1F [Comp 5, 2-((3-fluoropyridin-2-yl)methoxy)-6-hydroxybenzaldehyde] | 3e+06 ng·h/mL and 12000 µM·h | 86000 ng/mL and 348 µM | 8.8 h | 5.1e+06 ng·h/mL and 20600 µM·h | 246000 ng/mL and 993 µM | 4.2e+06 ng·h/mL and 17100 µM·h | 211000 ng/mL and 854 µM | without hepatotoxicity | No clinical or histopathologic changes | 93.1 ± 3.3% | 95.8 ± 3.3% | 97.2 ± 3.2% | relatively weak changes in p50 | 98.2 ± 2.5% |  |  | 
2 | O=Cc1c(O)cccc1OCc1cccc(CO)n1 [VZHE-039, reference compound] | 2.3e+06 ng·h/mL and 8780 µM·h | 102000 ng/mL and 394 µM | 8.4 h | 3.2e+06 ng·h/mL and 12200 µM·h | 232000 ng/mL and 894 µM | 3e+06 ng·h/mL and 11600 µM·h | 195000 ng/mL and 753 µM |  | clinical and histopathologic changes in the liver, including hepatocyte necrosis | 90.9 ± 3.4% | 92.4 ± 5.6% | 98.5 ± 4.3% |  | 90.7 ± 9.9% | 100 µM |  | 
3 | CC(C)n1nccc1-c1ncccc1COc1cccc(O)c1C=O [Voxelotor, reference compound] |  |  |  | 2.6e+06 ng·h/mL and 7620 µM·h | 185000 ng/mL and 548 µM | 2.3e+06 ng·h/mL and 6760 µM·h | 142000 ng/mL and 422 µM |  |  | 77.0 ± 3.8% | 80.3 ± 6.3% | 96.1 ± 3.7% |  | 92.3 ± 6.8% |  | did not demonstrate any sickle inhibition in anoxic conditions | at least 1 g/dl
4 | O=Cc1c(O)cccc1OCc1cccnc1 [Comp 1, 2-hydroxy-6-(pyridin-3-ylmethoxy)benzaldehyde] | 4e+06 ng·h/mL and 17400 µM·h | 211000 ng/mL and 919 µM | 5 h | 1.9e+06 ng·h/mL and 8080 µM·h | 122000 ng/mL and 534 µM | 2.4e+06 ng·h/mL and 10500 µM·h | 161000 ng/mL and 703 µM | without hepatotoxicity | No clinical or histopathologic changes | 96.0 ± 1.9% | 97.4 ± 2.8% | 98.6 ± 2.8% | relatively weak changes in p50 | 95.8 ± 6.2% | 60 µM | most potent and sustained polymer destabilizing effects observed to date | 
5 | O=Cc1c(O)cccc1OCc1ccccn1 [Comp 2, 2-hydroxy-6-(pyridin-2-ylmethoxy)benzaldehyde] | 4.5e+06 ng·h/mL and 19800 µM·h | 220000 ng/mL and 958 µM | 9.7 h | 4.9e+06 ng·h/mL and 21500 µM·h | 254000 ng/mL and 1.11 mM | 4.7e+06 ng·h/mL and 20400 µM·h | 254000 ng/mL and 1.11 mM | without hepatotoxicity | No clinical or histopathologic changes | 95.2 ± 2.3% | 96.3 ± 2.6% | 98.9 ± 2.9% | relatively weak changes in p50 | 95.5 ± 5.7% |  | most potent and sustained polymer destabilizing effects observed to date | 
